{
  "source": "ChEMBL document CHEMBL4270552",
  "about": "“4-(Phenoxy) and 4-(benzyloxy)benzamides as potent and selective inhibitors of mono-ADP-ribosyltransferase PARP10/ARTD10” (Eur J Med Chem, 2018)",
  "key": {"[1]": {"target": "T1, Protein mono-ADP-ribosyltransferase PARP10 (Homo sapiens, UniProt Q53GL7)", "T1 sequence (Q53GL7 whole entry)": "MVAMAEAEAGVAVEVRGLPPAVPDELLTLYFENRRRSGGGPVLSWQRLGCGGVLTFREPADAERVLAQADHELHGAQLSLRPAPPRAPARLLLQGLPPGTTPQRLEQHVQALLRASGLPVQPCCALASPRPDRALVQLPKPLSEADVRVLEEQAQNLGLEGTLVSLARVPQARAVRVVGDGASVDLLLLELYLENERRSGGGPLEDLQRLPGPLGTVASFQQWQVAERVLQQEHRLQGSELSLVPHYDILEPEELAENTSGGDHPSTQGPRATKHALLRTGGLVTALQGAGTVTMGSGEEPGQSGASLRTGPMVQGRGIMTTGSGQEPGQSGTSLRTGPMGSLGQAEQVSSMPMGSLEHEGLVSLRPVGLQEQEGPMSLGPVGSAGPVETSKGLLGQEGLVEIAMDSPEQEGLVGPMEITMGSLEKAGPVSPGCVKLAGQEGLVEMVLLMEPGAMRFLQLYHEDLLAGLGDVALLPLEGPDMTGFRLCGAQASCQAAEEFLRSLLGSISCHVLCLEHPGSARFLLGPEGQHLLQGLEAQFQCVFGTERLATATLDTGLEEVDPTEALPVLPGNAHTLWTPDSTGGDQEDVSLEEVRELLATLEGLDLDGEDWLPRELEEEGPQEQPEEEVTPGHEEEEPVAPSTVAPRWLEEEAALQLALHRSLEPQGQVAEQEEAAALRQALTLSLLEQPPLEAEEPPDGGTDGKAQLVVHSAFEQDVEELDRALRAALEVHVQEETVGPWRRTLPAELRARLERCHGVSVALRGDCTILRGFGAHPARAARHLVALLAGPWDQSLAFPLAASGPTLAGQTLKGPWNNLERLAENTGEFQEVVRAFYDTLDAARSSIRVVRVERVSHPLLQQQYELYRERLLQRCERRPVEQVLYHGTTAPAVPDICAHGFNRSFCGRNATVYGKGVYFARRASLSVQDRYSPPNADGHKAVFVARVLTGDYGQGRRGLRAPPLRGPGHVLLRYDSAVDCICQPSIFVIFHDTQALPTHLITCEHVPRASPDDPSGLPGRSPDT", "test": "Inhibition of C-terminal His-tagged human ARTD10 (809 to 1017 residues) expressed in Escherichia coli Rosetta2 (DE3) using SRPK2 as substrate after 13 hrs in presence of NAD+"}, "[2]": {"target": "T2, Protein mono-ADP-ribosyltransferase PARP3 (Homo sapiens, UniProt Q9Y6F1)", "T2 sequence (Q9Y6F1 whole entry)": "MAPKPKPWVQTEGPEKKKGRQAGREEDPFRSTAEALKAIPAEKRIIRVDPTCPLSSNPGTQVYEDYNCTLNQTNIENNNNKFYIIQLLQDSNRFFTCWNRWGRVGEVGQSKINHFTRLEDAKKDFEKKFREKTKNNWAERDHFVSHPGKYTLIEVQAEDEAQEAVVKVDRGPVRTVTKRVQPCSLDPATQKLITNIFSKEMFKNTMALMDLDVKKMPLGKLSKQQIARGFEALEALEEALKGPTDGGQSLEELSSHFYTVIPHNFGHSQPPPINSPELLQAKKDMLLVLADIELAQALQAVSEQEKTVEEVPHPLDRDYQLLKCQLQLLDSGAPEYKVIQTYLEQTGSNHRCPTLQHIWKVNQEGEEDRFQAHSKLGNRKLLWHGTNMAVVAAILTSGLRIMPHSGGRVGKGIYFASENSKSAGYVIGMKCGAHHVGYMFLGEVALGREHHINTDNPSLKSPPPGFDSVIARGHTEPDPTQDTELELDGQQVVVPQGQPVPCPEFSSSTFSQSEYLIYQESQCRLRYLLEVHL", "test": "Inhibition of N-terminal His-tagged thioredoxin-fused human ARTD3 (1 to 533 residues) expressed in Escherichia coli Rosetta2 (DE3) using DNA as substrate after 3 hrs in presence of NAD+"}, "[3]": {"target": "T3, Protein mono-ADP-ribosyltransferase PARP10 (Homo sapiens) (UniProt Q53GL7)", "T3 sequence (whole entry)": "T1 sequence (Q53GL7 whole entry)", "description": "Stabilization of C-terminal His-tagged human ARTD10 (809 to 1017 residues) expressed in Escherichia coli Rosetta2 (DE3) assessed as change in melting temperature at 100 uM by SYPRO Orange-dye based differential scanning fluorimetric method"}, "[4]": {"target": "T4, Protein mono-ADP-ribosyltransferase PARP16 (Homo sapiens, UniProt Q8N5Y8)", "T4 sequence (Q8N5Y8 whole entry)": "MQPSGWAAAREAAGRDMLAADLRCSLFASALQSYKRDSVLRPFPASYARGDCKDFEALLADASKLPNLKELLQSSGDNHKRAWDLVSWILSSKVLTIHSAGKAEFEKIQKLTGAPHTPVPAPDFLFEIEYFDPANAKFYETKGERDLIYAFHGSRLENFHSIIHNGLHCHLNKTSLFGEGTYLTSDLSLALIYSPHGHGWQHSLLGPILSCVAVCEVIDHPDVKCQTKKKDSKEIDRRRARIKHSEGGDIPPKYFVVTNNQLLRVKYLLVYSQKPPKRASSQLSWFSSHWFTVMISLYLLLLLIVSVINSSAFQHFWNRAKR", "test": "Inhibition of N-terminal His-tagged human ARTD15 (1 to 280 residues) expressed in Escherichia coli Rosetta2 (DE3) after 24 hrs in presence of NAD+"}, "[5]": {"target": "Protein mono-ADP-ribosyltransferase PARP14 (Homo sapiens, UniProt Q460N5)", "sequence (Q460N5 whole entry, the tested form may be a part)": "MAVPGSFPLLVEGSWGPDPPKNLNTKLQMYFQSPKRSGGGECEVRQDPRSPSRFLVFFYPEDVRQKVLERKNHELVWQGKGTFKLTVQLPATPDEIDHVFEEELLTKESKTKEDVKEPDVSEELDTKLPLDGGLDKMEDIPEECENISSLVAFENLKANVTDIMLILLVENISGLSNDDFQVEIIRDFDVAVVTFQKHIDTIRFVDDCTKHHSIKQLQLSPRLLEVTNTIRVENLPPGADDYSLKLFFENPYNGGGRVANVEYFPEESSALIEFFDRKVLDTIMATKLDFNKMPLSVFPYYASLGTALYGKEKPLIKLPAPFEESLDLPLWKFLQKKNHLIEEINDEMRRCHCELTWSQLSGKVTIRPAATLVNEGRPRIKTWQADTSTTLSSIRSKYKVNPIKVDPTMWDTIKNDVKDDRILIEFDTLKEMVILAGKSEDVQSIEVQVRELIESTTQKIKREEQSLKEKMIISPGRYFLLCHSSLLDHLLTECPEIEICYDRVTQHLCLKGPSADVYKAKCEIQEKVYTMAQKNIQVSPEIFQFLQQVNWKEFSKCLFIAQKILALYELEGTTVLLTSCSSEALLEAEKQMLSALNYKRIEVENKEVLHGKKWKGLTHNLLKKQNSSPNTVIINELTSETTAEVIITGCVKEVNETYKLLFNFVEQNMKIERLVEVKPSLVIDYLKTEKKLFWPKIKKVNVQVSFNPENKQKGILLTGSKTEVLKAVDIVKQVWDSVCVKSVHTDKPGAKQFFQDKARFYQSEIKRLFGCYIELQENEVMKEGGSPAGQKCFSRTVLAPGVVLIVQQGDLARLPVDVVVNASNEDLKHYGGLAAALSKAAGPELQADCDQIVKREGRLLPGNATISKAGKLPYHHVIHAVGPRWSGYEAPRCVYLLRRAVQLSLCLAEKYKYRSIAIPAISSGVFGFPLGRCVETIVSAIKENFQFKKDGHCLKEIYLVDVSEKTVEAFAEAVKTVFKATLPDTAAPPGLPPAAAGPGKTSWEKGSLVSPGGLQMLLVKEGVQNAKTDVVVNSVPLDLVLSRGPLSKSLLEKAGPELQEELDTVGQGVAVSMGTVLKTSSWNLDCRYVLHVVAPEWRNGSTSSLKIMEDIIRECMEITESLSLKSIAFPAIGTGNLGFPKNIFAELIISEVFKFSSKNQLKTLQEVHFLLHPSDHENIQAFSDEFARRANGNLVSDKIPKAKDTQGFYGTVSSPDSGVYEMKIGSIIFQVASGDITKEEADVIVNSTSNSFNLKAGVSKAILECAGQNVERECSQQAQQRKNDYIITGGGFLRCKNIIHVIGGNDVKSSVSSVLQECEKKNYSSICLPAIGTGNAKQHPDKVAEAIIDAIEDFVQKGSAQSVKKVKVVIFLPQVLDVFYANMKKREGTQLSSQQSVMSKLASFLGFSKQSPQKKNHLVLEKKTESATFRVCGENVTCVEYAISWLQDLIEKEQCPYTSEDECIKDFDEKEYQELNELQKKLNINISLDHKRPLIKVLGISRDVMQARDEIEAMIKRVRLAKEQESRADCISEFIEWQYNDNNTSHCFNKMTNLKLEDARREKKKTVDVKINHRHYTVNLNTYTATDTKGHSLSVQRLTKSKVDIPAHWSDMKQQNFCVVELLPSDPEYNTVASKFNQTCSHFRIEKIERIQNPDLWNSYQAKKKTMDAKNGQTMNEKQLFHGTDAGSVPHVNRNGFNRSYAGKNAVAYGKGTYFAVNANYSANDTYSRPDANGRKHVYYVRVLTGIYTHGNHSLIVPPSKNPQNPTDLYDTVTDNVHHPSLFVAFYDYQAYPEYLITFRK", "test": "Inhibition of N-terminal His-tagged thioredoxin-fused human ARTD8 (1535 to 1801 residues) expressed in Escherichia coli Rosetta2 (DE3) after 21 hrs in presence of NAD+"}},
  "data": [
    {"smiles": "NC(=O)c1ccc(Oc2ccc(C(=O)O)cc2)cc1", "values": [
      {"measurement": "IC50", "setting": "[1]; read-out: IC50", "result": 0.18, "unit": "µM"},
      {"measurement": "IC50", "setting": "[1]; read-out: pIC50 (converted)", "result": 0.186, "unit": "µM"},
      {"measurement": "IC50", "setting": "[2]", "result": "> 100", "unit": "µM"},
      {"measurement": "ΔTm", "setting": "[3]", "result": 5.21, "unit": "°C"},
      {"measurement": "IC50", "setting": "[4]", "result": "> 10", "unit": "µM"},
      {"measurement": "IC50", "setting": "[5]", "result": "> 10", "unit": "µM"}
    ]},
    {"smiles": "COc1ccc(C(N)=O)cc1", "values": [
      {"measurement": "IC50", "setting": "[1]; read-out: IC50", "result": 2.8, "unit": "µM"},
      {"measurement": "IC50", "setting": "[1]; read-out: pIC50 (converted)", "result": 2.75, "unit": "µM"},
      {"measurement": "IC50", "setting": "[2]", "result": "> 100", "unit": "µM"},
      {"measurement": "ΔTm", "setting": "[3]", "result": 2.76, "unit": "°C"},
      {"measurement": "IC50", "setting": "[4]", "result": "> 10", "unit": "µM"},
      {"measurement": "IC50", "setting": "[5]", "result": "> 10", "unit": "µM"}
    ]},
    {"smiles": "NC(=O)c1ccc(OCc2ccccc2F)cc1", "values": [
      {"measurement": "IC50", "setting": "[1]; read-out: IC50", "result": 0.23, "unit": "µM"},
      {"measurement": "IC50", "setting": "[1]; read-out: pIC50 (converted)", "result": 0.234, "unit": "µM"},
      {"measurement": "IC50", "setting": "[2]", "result": "> 100", "unit": "µM"},
      {"measurement": "ΔTm", "setting": "[3]", "result": 4.2, "unit": "°C"},
      {"measurement": "IC50", "setting": "[4]", "result": "> 10", "unit": "µM"},
      {"measurement": "IC50", "setting": "[5]", "result": 10, "unit": "µM"}
    ]},
    {"smiles": "NC(=O)c1ccc(Oc2ccc(C=O)cc2)cc1", "values": [
      {"measurement": "IC50", "setting": "[1]; read-out: IC50", "result": 0.71, "unit": "µM"},
      {"measurement": "IC50", "setting": "[2]", "result": 86, "unit": "µM"},
      {"measurement": "ΔTm", "setting": "[3]", "result": 3.6, "unit": "°C"},
      {"measurement": "IC50", "setting": "[4]", "result": "> 10", "unit": "µM"},
      {"measurement": "IC50", "setting": "[5]", "result": "> 10", "unit": "µM"}
    ]}
  ]
}
